Columns and labels:
[1] = system: genes related to antigen presentation and corresponding inflammatory pathways; conditions: mainly via the NFkB pathway (Gurevich, 2010); cited from earlier work
[2] = system: Th1 (T helper 1 cell) to Th2 (T helper 2 cell) shift; conditions: animal studies (Yang, 2004; Brück, 2011); cited from earlier work
Brown Norway rats = conditions: rat, in vivo
Description: Prior to any experimental procedure, clinical observations were performed daily, body weights were obtained, intraocular pressure (IOP) was measured and detailed ocular examinations were performed on both eyes.
Clinical observations were performed daily according to Table 6 below:
Animals were weighed weekly prior to initiation of dosing. The first day the rats are weighed was designated as Study Day 1, and the beginning of Study Week 1.
Animals selected for the study were examined prior to the initial administration of the test or the control articles to ensure that both eyes were free of abnormality, damage, and disease. Both eyes were examined, scored and recorded prior to the initial dose administration using a hand held slit-lamp and a direct ophthalmoscope or the surgical microscope according to the Classification System for Grading Ocular Lesions as described in Table 7, and the Ocular Posterior Segment Scoring Scale of Table 8. Posterior segment examination was performed after topical application of Tropicamide in the conscious state, or after the rats are anesthetized with isoflorane inhalation. Only rats showing no signs of eye irritation, ocular defects, or preexisting corneal injury were used in the study. […]
Both eyes were examined and scored at one week after the second HSI and on the day of euthanasia, for a total of two times. […]

optic nerve = experiment: Optic nerve injury grading (toluidine blue cross-sections, Grade 1-5) in rat OHT model; format: in vivo, Brown Norway rats (Rattus norvegicus); conditions: for Mean ON Injury Grade (Mean±SD), Non-OHT (control) eyes / Mean ON Injury Grade (Mean±SD), OHT optic nerves: grade scale 1-5; for Mean ON Injury Grade (Mean±SD), OHT optic nerves: vehicle 3.0±1.6
Description: Animals were euthanized 5 weeks after the 2nd HSI. The retinas were flat-mounted, slide IDs were masked and 8 regions per retina were imaged using a confocal microscope. RGC at these regions were counted using the Image J software. After the optic nerves were extracted, they were plastic-embedded, sectioned and stained with Toluidine Blue at Schepens Eye Research Institute, Boston, Mass.. The injury in the optic nerves was evaluated and graded by microscopic examination in a masked fashion. The eyes were immediately enucleated with the optic nerve attached. An approximately 2.0 mm piece of the ON proximal to the globe is separated and labeled with tissue mark to indicate the orientation of the nerve. The ON piece is placed in Modified Karnovsky's Fixative in 0.1 M Na cacodylate buffer and kept at 4±2° C. overnight. The next day ON piece was washed at least three times for at least 10 minutes each in 0.1 M Na cacodylate buffer and stored in 0.1 M Na cacodylate buffer at 4±2° C. After specimens were transferred to a contracted processing facility, within a week, the optic nerves were processed for plastic embedding: After post-fixation in 2% osmium tetroxide in 0.1 M Na cacodylate buffer for at least 1.5 hours, ONs were dehydrated in graded ethanols, transitioned in propylene oxide and infiltrated with propylene oxide and epon mixtures. One to five (1-5) μm-thick cross-sections were taken via a microtome at the ON end approximately 2.0 mm away from the globe. ON sections were stained with 1% toluidine blue and cover-slipped. The processed specimens were returned. The identification of the ONs were masked prior to injury analysis. The ON cross-sections were analyzed for injury by light microscopy as follows: The damaging effect of the sustained IOP elevation was assessed by qualitative microscopic analysis of the ON cross-sections using a well-established grading system described in Table 9. This method allowed damage analysis of the entire retinal ganglion cell output (the ON) in one section by light microscopy and was more sensitive than counting total axons especially if there is mild nerve damage. […] The extent of injury was then graded by light microscopy based on a pattern of damage observed in rats with elevated IOP. [table] The damaging effect of the sustained IOP elevation was assessed by qualitative microscopic analysis of the ON cross-sections using a well-established grading system described in Table 9. This method allowed damage analysis of the entire retinal ganglion cell output (the ON) in one section by light microscopy and was more sensitive than counting total axons especially if there is mild nerve damage. […] The extent of injury was then graded by light microscopy based on a pattern of damage observed in rats with elevated IOP.

glaucoma human patients = experiment: Example 2: efficacy of laquinimod for treating patients afflicted with glaucoma; format: in vivo
Description: Example 2: Assessment of Efficacy of laquinimod for Treating Patients Afflicted with Glaucoma Periodic (e.g., daily or twice daily) administration of laquinimod (oral or topical) is effective in treating glaucoma human patients. Periodic (e.g., daily or twice daily) administration of laquinimod (oral or topical) is effective to reduce a glaucoma-associated symptom in the subject. A laquinimod composition as described herein is administered systematically or locally to the eye of a subject suffering from glaucoma. The administration of the composition is effective to treat the subject suffering from glaucoma. The administration of the composition is also effective to reduce a glaucoma-associated symptom of glaucoma in the subject.

[3] = human subject with glaucoma, systemic or local administration to the eye

CCN(C(=O)c1c(O)c2c(Cl)cccc2n(C)c1=O)c1ccccc1 [Laquinimod]
suppression of genes related to antigen presentation and corresponding inflammatory pathways [1]: induced suppression | Th1 to Th2 shift [2]: causes a Th1 | Weight gained between day of dosing and day of euthanasia, groups compared (Brown Norway rats): did not differ | Mean ON Injury Grade (Mean±SD), Non-OHT (control) eyes (optic nerve; Group 1, topical 1% laquinimod (left eye dosed only)): 1.1±0.1 | Mean ON Injury Grade (Mean±SD), OHT optic nerves (optic nerve; Group 1, topical 1% laquinimod): 2.5±1.3 | Mean ON Injury Grade (Mean±SD), Non-OHT (control) eyes (optic nerve; Group 3, topical 4% laquinimod (left eye dosed only)): 1.2±0.2 | Mean ON Injury Grade (Mean±SD), OHT optic nerves (optic nerve; Group 3, topical 4% laquinimod): 3.0±1.5 | Mean ON Injury Grade (Mean±SD), Non-OHT (control) eyes (optic nerve; Group 4, topical 0.25% laquinimod (left eye dosed only)): 1.2±0.3 | Mean ON Injury Grade (Mean±SD), OHT optic nerves (optic nerve; Group 4, topical 0.25% laquinimod): 2.8±1.3 | Mean ON Injury Grade (Mean±SD), Non-OHT (control) eyes (optic nerve; Group 5, oral 0.1% laquinimod): 1.2±0.2 | Mean ON Injury Grade (Mean±SD), OHT optic nerves (optic nerve; Group 5, oral 0.1% laquinimod): 2.7±1.5 | Mean ON injury grades, OHT eyes compared to Non-OHT control eyes, two-tailed paired-t tests (optic nerve; all groups, P<0.05): significantly greater in the OHT eyes | Mean ON injury grades in OHT and Non-OHT eyes versus groups, Two-Way ANOVA eye versus group interaction (optic nerve; all groups, P=0.98): groups did not differ | Treating glaucoma / reducing a glaucoma-associated symptom (glaucoma human patients; human patients, periodic (e.g. daily or twice daily) oral or topical administration): effective | Reduction of RGC damage and/or RGC loss, improvement of RGC viability (glaucoma human patients; [3]): effective to reduce RGC damage and/or RGC loss | Reduction of intraocular pressure (glaucoma human patients; [3]): effective to reduce intraocular pressure
